How the values were obtained:
[1] = system: TGF-β induced PAI-1 production; experiment: TGF-β induced PAI-1 production in HT1080 cells (Western blotting); format: cell-based; conditions: TGF-β1 10 ng/mL, 6-hours incubation
Experimental: After incubating HT1080 cells for 48 hours in the MEM medium containing 10%FBS (Fetal Bovine Serum), the medium was changed to a MEM medium containing 1% FBS, and TGF-β1 (final concentration: 10 ng/mL) only, or TGF-β1 (final concentration: 10 ng/mL) and the test substances were added and incubated. As a control, a culture solution without neither TGF-β1 nor the test substances was prepared. After 6-hours incubation, the culture fluids were collected, and the PAI-1 amounts in the culture fluids were measured by the Western blotting. The PAI-1 amount when TGF-β1 only was added being "100%," and the PAI-1 amount in the control being "0%," PAI-1 I amounts at each concentration of the test substances (PAI-1 inhibition ratios) were calculated, and the concentrations of the compounds, which inhibited PAI-1 production to 50% (IC50) in amount, were obtained.

[2] = system: TGF-β induced PAI-1 production; experiment: TGF-β induced PAI-1 production in HepG2 cells (Human Serpin E1/PAI-1 DuoSet); format: cell-based; conditions: Compound Concentration : 1μM, TGF-β1 1ng/mL, 24 hours
Experimental: HepG2 cells were seeded on a 96-well culture plate by 2x10^4 cells/well, and were incubated for 24 hours in the MEM medium containing 1% NEAA (Non-Essential Amino Acids), 1mM pyruvate, and 10% FBS. Then, the medium was changed to a MEM medium containing 1% NEAA, 1mM pyruvate and 1% FBS, and the cells were further incubated for 24 hours. Subsequently, after the medium was changed to a MEM medium containing 1% NEAA, 1mM pyruvate and 1% FBS, and then the cells were treated with the test substances (final concentration: 1 µM or 0.1 µM) for one hour, TGF-β1 (final concentration.1ng/mL) was added and the cells were further incubated for 24 hours. As controls, a culture solution added TGF-β1 only and a culture solution cultured without neither the test substances nor TGF-β1 were prepared. After the incubation, the PAI-1 amount was measured using Human Serpin E1/PAI-1 DuoSet (R&D Systems). The PAI-1 amount when treated with TGF-β1 only being "100%", and the PAI-1 amount when treated without neither the test substances nor TGF-β1 being "0%", the PAI-1 inhibition ratios of each test substance were calculated. IC50 of the compound (2) was about 50 nM.

[3] = system: Chronic Obstructive Pulmonary Disease (COPD) model; experiment: Collagen accumulation in alveoli of guinea pigs exposed to cigarette smoke (Masson-trichrome, image analysis); format: in vivo; conditions: smoke of 40 cigarettes a day for 25 days, oral once a day for 25 days, compound (1) 30 or 100 mg/kg/day, prednisolone 10 mg/kg/day (Fig. 2)
Experimental: Using the smoking exposure system (INH06-CIG01A, MIPS Inc.), 6-week old guinea pigs (Std: male Hartley, Japan SLC, Inc.) were exposed to smoke of 40 cigarettes (Peace (Registered Trademark), Japan Tobacco, Inc.) a day (20 cigarettes twice) for 25 continuous days (Chronic Obstructive Pulmonary Disease (COPD) model group: Control group: n=10). To theseguinea pigs, from the day of exposure to the smoke of tobacco, the compound (1) (30 mg/kg/day or 100 mg/kg/day) or prednisolone (10 mg/kg/day) was continuously administered orally once a day for 25 days (Compound (1) 30 mg administered group: n=5, Compound (1) 100 mg administered group: n=5, Prednisolone administered group: n=5). Furthermore, as a normal group, guinea pigs (n=5) exposed to air without the administration of the compound (1) and prednisolone were prepared. On the following day of the last exposure, after preparing paraffin sections in the lungs of each guinea pig, collagen was stained by the Masson-trichrome method, and the accumulations of collagen in the alveoli were measured by the area rate with the image analysis. […] Next, the above paraffin section was stained by the immunostaining method using an anti PAI-1 antibody (PAI-1 H-135; Santa Cruz; 250-fold dilution), and the ratio of PAI-1 expression cells to the total cell numbers infiltrated in the lung was measured. […]

Row | Structure (SMILES) | IC50 [1] | Inhibition Ratio (%) [2] | accumulation of collagen in the alveoli (area rate) [3]
1 | O=C(Nc1cc(C(F)(F)F)ccc1C(F)(F)F)c1cc(Br)ccc1O [(3)] | 83 nM | >90% | –
2 | C[C@]12C=CC(=O)C=C1CC[C@@H]1[C@@H]2[C@@H](O)C[C@@]2(C)[C@H]1CC[C@]2(O)C(=O)CO [prednisolone] | – | – | not able to inhibit the accumulation of collagen
